What was measured:
[1] = system: Smn protein in SMA patient fibroblast cells (GM03813); assay: Smn protein assay in cultured cells (SMN HTRF); format: cell-based, human; conditions: SMA patient fibroblast cells, 48 hours; for EC1.5x for Smn protein expression: 7-point concentration curve, SMN HTRF, concentration producing 1.5 times Smn protein vs DMSO vehicle control; for maximum fold (Fold) increase of Smn protein: 7-point concentration data, fold relative to vehicle control
Outline: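 Fibroblasts, SMA patient; 5,000 cells/well; 7-pt curve, 3.16-fold serial dilution; 48 h, 37 °C, 5% CO2; RIPA lysis 1 h RT; anti-SMN d2 + kryptate overnight RT; HTRF 665/620 nm; fold vs DMSO; EC1.5×, max fold.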

[2] = system: SMN2 minigene mRNA (SMN2-A minigene) in HEK293H cells; assay: SMN2 minigene mRNA splicing RT-qPCR assay in cultured cells; format: cell-based, human; conditions: Homo sapiens, HEK293-H; concentration increasing full length SMN2 mRNA 1.5-fold relative to vehicle-treated cells; HEK293H cells with SMN2-A minigene, 24 hours, 7-point concentration data; read-out: EC1.5x for production of full length SMN2 mRNA
Outline: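 Stable SMN2-A minigene HEK293H; cpd 7-pt 3.16-fold series, 200× in DMSO, 24 h, 37 °C, n=2. Lysates → multiplex RT-qPCR (minigene FL + GAPDH), efficiency-corrected ΔΔCt vs vehicle. EC1.5× = 1.5-fold FL mRNA gain.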

melting point | SMILES | EC1.5x for Smn protein expression [1] | maximum fold (Fold) increase of Smn protein [1] | EC (1.5-fold increase) [2]
274 to 277 °C | Cc1cn2cc(-c3cc(=O)n4cc(N5CCNCC5)ccc4n3)cc(C3CC3)c2n1 [Cpd 714, 2-(8-cyclopropyl-2-methylimidazo[1,2-a]pyridin-6-yl)-7-(piperazin-1-yl)-4H-pyrido[1,2-a]pyrimidin-4-one] | **** (an EC1.5x≤0.3 μM is indicated by four stars (****)) | ***** (a fold increase >1.65 is indicated by five stars (*****)) | < 0.1 µM
244 to 246 °C | Cc1cn2nc(-c3cc(=O)n4cc(N5CC[C@@H](CN)C5)ccc4n3)cc2c(C)n1 [Cpd 764, 7-[(3S)-3-(aminomethyl)pyrrolidin-1-yl]-2-(4,6-dimethylpyrazolo[1,5-a]pyrazin-2-yl)-4H-pyrido[1,2-a]pyrimidin-4-one] | * (An EC1.5× for Smn protein expression between >3 μM and ≤10 μM is indicated by one star (*)) | *** (a fold increase between >1.35 and ≤1.5 is indicated by three stars (***)) | 1 to 3 µM
136 to 138 °C | Cc1cn2nc(-c3cc(=O)n4cc(CCCN(C)C)ccc4n3)cc2c(C)n1 [Cpd 769, 7-[3-(dimethylamino)propyl]-2-(4,6-dimethylpyrazolo[1,5-a]pyrazin-2-yl)-4H-pyrido[1,2-a]pyrimidin-4-one] | *** (an EC1.5× between >0.3 μM and ≤1 μM is indicated by three stars (***)) | ***** (a fold increase >1.65 is indicated by five stars (*****)) | 0.1 to 0.3 µM
228 to 231 °C | Cc1cn2nc(-c3cc(=O)n4cc(C5=C[C@H](C)N[C@@H](C)C5)ccc4n3)cc2c(C)n1 [Cpd 798, 2-(4,6-dimethylpyrazolo[1,5-a]pyrazin-2-yl)-7-[(2S,6S)-2,6-dimethyl-1,2,3,6-tetrahydropyridin-4-yl]-4H-pyrido[1,2-a]pyrimidin-4-one] | **** (an EC1.5x≤0.3 μM is indicated by four stars (****)) | ***** (a fold increase >1.65 is indicated by five stars (*****)) | < 0.1 µM
